Literature values in patent US9486463B2, “Chemosensory receptor ligand-based therapies” (AMBRA BIOSCIENCE LLC, priority 2010, dated 2016).

Legend:
sweet receptor = target: T1, sweet receptor (Homo sapiens, UniProt Q7RTX0+Q8TE23); settings: relative sweetness on a weight comparison basis to sucrose (=1.0)
T1 sequence (Q8TE23 20-839): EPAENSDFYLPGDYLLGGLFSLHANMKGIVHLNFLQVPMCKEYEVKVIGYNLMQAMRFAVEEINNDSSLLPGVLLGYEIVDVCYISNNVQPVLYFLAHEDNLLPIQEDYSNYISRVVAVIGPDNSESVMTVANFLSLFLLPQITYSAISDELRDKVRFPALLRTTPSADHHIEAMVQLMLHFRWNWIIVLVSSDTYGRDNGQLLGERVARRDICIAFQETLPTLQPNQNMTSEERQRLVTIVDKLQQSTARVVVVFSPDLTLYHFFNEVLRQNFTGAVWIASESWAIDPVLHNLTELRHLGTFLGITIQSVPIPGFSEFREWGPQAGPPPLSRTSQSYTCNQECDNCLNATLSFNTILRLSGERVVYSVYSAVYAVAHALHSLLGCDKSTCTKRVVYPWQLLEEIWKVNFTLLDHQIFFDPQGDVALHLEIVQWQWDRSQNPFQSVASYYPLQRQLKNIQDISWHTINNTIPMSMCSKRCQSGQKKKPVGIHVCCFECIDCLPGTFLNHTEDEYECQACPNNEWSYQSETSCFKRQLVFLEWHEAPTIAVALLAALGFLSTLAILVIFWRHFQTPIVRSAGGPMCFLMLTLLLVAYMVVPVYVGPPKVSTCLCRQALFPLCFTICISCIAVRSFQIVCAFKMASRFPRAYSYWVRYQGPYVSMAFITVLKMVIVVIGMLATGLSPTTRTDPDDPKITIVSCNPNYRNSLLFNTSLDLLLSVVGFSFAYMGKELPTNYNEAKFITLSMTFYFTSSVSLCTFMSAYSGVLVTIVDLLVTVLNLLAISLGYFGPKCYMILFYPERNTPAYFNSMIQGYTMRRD
T1 sequence (Q7RTX0 21-852): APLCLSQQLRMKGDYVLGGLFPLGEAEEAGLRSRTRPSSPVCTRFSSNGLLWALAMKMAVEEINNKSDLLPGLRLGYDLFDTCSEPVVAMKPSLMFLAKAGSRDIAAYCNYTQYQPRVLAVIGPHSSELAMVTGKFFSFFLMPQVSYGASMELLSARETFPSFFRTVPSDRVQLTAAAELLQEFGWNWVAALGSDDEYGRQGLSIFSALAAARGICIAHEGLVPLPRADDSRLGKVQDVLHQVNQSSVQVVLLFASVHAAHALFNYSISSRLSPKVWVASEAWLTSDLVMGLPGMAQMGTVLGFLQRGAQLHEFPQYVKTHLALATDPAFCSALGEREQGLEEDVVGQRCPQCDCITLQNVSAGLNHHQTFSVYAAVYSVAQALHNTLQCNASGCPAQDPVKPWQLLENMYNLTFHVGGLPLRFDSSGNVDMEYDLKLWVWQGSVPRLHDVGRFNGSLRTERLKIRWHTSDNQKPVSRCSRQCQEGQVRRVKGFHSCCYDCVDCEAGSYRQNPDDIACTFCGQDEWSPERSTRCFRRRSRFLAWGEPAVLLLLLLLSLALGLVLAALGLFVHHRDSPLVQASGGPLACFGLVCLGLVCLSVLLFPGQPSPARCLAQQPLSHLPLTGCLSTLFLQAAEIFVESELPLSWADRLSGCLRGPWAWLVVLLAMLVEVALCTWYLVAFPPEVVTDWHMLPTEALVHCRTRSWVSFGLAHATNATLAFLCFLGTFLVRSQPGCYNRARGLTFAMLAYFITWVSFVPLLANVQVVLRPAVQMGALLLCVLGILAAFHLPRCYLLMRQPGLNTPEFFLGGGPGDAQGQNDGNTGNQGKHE

humans [1] = tested on: humans
rats [2] = tested on: rats
humans [3] = tested on: humans; remark: listed apart in the source
rats [4] = tested on: rats; remark: listed apart in the source
humans [5] = settings: instillation into the duodenum of humans
rats [6] = tested on: rats; remark: listed apart in the source
[7] = tested on: patients with jejunostomy

**Q.** Which Sweetness/potency (sweet receptor) does the source give for C=C(C)C1CC=C(/C=N/O)CC1 (centres unmarked) [Perillartine (10), Perillartine] here?
**A.** 370

**Q.** For C=C1C[C@@]23CC[C@H]4[C@@](C)(CCC[C@@]4(C)C(=O)O[C@@H]4O[C@H](CO)[C@@H](O)[C@H](O)[C@H]4O)[C@@H]2CC[C@]1(O[C@@H]1O[C@H](CO)[C@@H](O)[C@H](O[C@@H]2O[C@H](CO)[C@@H](O)[C@H](O)[C@H]2O)[C@H]1O[C@@H]1O[C@H](CO)[C@@H](O)[C@H](O)[C@H]1O)C3 [Rebaudioside A (4), Rebaudioside A], which “Gut hormones in the circulation” value (humans [1]) is on record?
**A.** no alterations

**Q.** For N[C@@H](CCC(=O)O)C(=O)O [glutamate], which Abdominal fat (rats [2]) is on record?
**A.** reduced abdominal fat

**Q.** What about the Weight gain (rats [2]) of the same molecule?
**A.** decreased weight gain

**Q.** Which results are given for OCCN1C[C@H](O)[C@@H](O)[C@H](O)[C@H]1CO [miglitol]?
**A.** Post-prandial GLP-1 levels (humans [3]): increase; Increase in GLP-1, interaction with administration of a DPP-IV inhibitor (rats [4]): synergistic

**Q.** What does the source list for OC[C@H]1O[C@H](O[C@]2(CCl)O[C@H](CCl)[C@@H](O)[C@@H]2O)[C@H](O)[C@@H](O)[C@H]1Cl [sucralose]?
**A.** Gut hormone release (humans [5]): no effect; Gut hormone release (rats [6]): no effect

**Q.** For Dulcoside A [Dulcoside A (15)], which Sweetness/potency (sweet receptor) is on record?
**A.** 30

**Q.** What does the source list for “GLP-2: gut hormone administered in patients with jejunostomy (HADGSFSDEMNTILDNLAARDFINWLIQTKITD; Glucagon-like peptide 2; UniProt P01275 146-178, looked up)”?
**A.** Gastric emptying of solids and liquids [7]: prolong; Intestinal absorption of energy and intestinal wet weight absorption [7]: improve
